Test: solubility of the electron transport component (CFM derivative) in organic solvents
Format: physicochemical

| Structure (SMILES) | solubility of the electron transport component (solvent is butylacetate) | solubility of the electron transport component (solvent is tetrahydrofuran) |
| --- | --- | --- |
| CCCCOC(=O)c1cccc2c1-c1ccccc1C2=C(C#N)C#N [R8 is n-butyl, (4-n-butoxycarbonyl-9-fluorenylidene)malononitrile] | 8 grams/liter | 105 grams/liter |
| CCCCC(CC)COC(=O)c1cccc2c1-c1ccccc1C2=C(C#N)C#N (stereo not shown) [R8 is 2-ethylhexyl, 9-dicyanomethylenefluorene-4-(2-ethylhexyl)carboxylate] | 25 grams/liter | 205 grams/liter |

From patent US7070892B2, “Imaging members” (Xerox Corporation, priority 2004, dated 2006)
